Data from patent US10947252B2, “Inhibitors of KEAP1-Nrf2 protein-protein interaction” (Janssen Pharmaceutica NV, priority 2018, dated 2021).

Key:
[1] = molecular target: Kelch domain of human KEAP1 (321-624 aa) (Homo sapiens (Human), UniProt Q14145); experiment: KEAP1 KELCH ThermoFluor binding assay; details: KEAP Kelch […], 1,8-ANS, pH 7.0, average of results obtained, read-out: Tf Kd;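 note: Ligand-induced melting temperature shift of E. coli-expressed KEAP1 Kelch protein, Kd estimated from concentration-response curves of ΔTm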
[2] = test system: Glo-Response ARE-luc2P HEK293 cell line; experiment: ARE luciferase reporter cell-based assay; details: Homo sapiens, HEK293, 24 h, average of results obtained;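 note: luciferase signal tracks Nrf2 activation of the ARE once compounds disrupt KEAP1-Nrf2 binding, read with One-Glo reagent, DMSO serving as low control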

Chain of Kelch domain of human KEAP1 (321-624 aa) (Q14145 321-624): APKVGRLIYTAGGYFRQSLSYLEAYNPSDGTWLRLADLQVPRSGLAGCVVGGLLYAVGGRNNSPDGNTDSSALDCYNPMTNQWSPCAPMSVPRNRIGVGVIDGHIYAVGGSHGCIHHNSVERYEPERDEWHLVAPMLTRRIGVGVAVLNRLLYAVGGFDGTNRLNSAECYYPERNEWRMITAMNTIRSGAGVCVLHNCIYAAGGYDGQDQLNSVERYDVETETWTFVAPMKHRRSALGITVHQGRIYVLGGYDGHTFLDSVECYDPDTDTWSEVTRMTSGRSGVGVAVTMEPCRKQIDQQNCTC

| Compound | Kd [1] | EC50 [2] |
| --- | --- | --- |
| COCCCNc1ccc2c(n1)OC1(CC1)CN(Cc1cc([C@H](CC(=O)O)c3ccn4c(C(F)(F)F)nnc4c3C)ccc1C)S2(=O)=O (single isomer, unassigned) [Example 107, (*S)-3-(3-((7′-((3-Methoxypropyl)amino)-1′,1′-dioxidospiro[cyclopropane-1,4′-pyrido[2,3-b][1,4,5]oxathiazepin]-2′(3′H)-yl)methyl)-4-methylphenyl)-3-(8-methyl-3-(trifluoromethyl)-[1,2,4]triazolo[4,3-a]pyridine-7-yl)propanoic Acid] | < 1 nM | 259 nM |
| Cc1ccc([C@H](CC(=O)O)c2ccc3c(nnn3CC3CC3)c2C)cc1CN1C[C@H]2CCCN2c2ncccc2S1(=O)=O (single isomer, unassigned) [Example 402, (*S)-3-(1-(Cyclopropylmethyl)-4-methyl-1H-benzo[d][1,2,3]triazol-5-yl)-3-(3-(((R)-5,5-dioxido-7a,8,9,10-tetrahydropyrido[2,3-f]pyrrolo[2,1-d][1,2,5]thiadiazepin-6(7H)-yl)methyl)-4-methylphenyl)propanoic Acid] | < 1 nM | 27.9 nM |
| Cc1ccc([C@@H](CC(=O)O)c2ccn3c(C(F)(F)F)nnc3c2C)cc1CN1C[C@H]2CCC(F)(F)CN2c2ncccc2S1(=O)=O (single isomer, unassigned) [Example 456, (*R)-3-(3-(((*R)-10,10-Difluoro-5,5-dioxido-7,7a,8,9,10,11-hexahydro-6H-dipyrido[2,1-d:2′,3′-f][1,2,5]thiadiazepin-6-yl)methyl)-4-methylphenyl)-3-(8-methyl-3-(trifluoromethyl)-[1,2,4]triazolo[4,3-a]pyridin-7-yl)propanoic Acid] | < 1 nM | 414 nM |
| Cc1ccc([C@@H](c2ccn3c(C4CC4)nnc3c2C)C(C)(C)C(=O)O)cc1CN1CC2(CCOCC2)Oc2ncccc2S1(=O)=O (single isomer, unassigned) [Example 41, (*S)-3-(3-Cyclopropyl-8-methyl-[1,2,4]triazolo[4,3-a]pyridin-7-yl)-3-(3-((1′,1′-dioxido-2,3,5,6-tetrahydrospiro[pyran-4,4′-pyrido[2,3-b][1,4,5]oxathiazepin]-2′(3′H)-yl)methyl)-4-methylphenyl)-2,2-dimethylpropanoic Acid] | < 1 nM | 46 nM |
| Cc1cc2cc(C(CC(=O)O)c3ccc(C)c(CN4C[C@H]5CCCN5c5ncccc5S4(=O)=O)c3)n(C)c2nn1 (mixture of isomers) [Example 434, 3-(3,7-Dimethyl-7H-pyrrolo[2,3-c]pyridazin-6-yl)-3-(3-(((R)-5,5-dioxido-7a,8,9,10-tetrahydropyrido[2,3-f]pyrrolo[2,1-d][1,2,5]thiadiazepin-6(7H)-yl)methyl)-4-methylphenyl)propanoic Acid] | 1.51 nM | 3870 nM |
| Cc1ccc([C@@H](c2ccn3c(C(F)(F)F)nnc3c2C)C(C)(C)C(=O)O)nc1CN1CC2(CC2)Oc2nc(OCCN3CCCC3)c(C)cc2S1(=O)=O (single isomer, unassigned) [Example 634, (*S)-2,2-Dimethyl-3-(8-methyl-3-(trifluoromethyl)-[1,2,4]triazolo[4,3-a]pyridin-7-yl)-3-(5-methyl-6-((8′-methyl-1′,1′-dioxido-7′-(2-(pyrrolidin-1-yl)ethoxy)spiro[cyclopropane-1,4′-pyrido[2,3-b][1,4,5]oxathiazepin]-2′(3′H)-yl)methyl)pyridin-2-yl)propanoic Acid] | < 1 nM | 9.53 nM |
| Cc1cnc2c(c1)S(=O)(=O)N(Cc1cc([C@@H](c3ccn4c(C5CC5)nnc4c3C)C(C)(C)C(=O)O)ccc1C)CC1(CC1)O2 (single isomer, unassigned) [Example 392, (*S)-3-(3-Cyclopropyl-8-methyl-[1,2,4]triazolo[4,3-a]pyridin-7-yl)-2,2-dimethyl-3-(4-methyl-3-((8′-methyl-1′,1′-dioxidospiro[cyclopropane-1,4′-pyrido[2,3-b][1,4,5]oxathiazepin]-2′(3′H)-yl)methyl)phenyl)propanoic Acid] | < 1 nM | 11.3 nM |
| Cc1ccc([C@@H](c2ccn3c(C(F)F)nnc3c2C)C(C)(C)C(=O)O)cc1CN1CC2(CC2)Oc2nc(OCCN3CCCCC3)c(C)cc2S1(=O)=O (single isomer, unassigned) [Example 374, (*S)-3-(3-(Difluoromethyl)-8-methyl-[1,2,4]triazolo[4,3-a]pyridine-7-yl)-2,2-dimethyl-3-(4-methyl-3-((8′-methyl-1′,1′-dioxido-7′-(2-(piperidin-1-yl)ethoxy)spiro[cyclopropane-1,4′-pyrido[2,3-b][1,4,5]oxathiazepin]-2′(3′H)-yl)methyl)phenyl)propanoic Acid] | < 1 nM | 4.8 nM |
| CCn1nnc2c(C)c([C@H](CC(=O)O)c3ccc(C)c(CN4C[C@H]5CCCN5c5ncccc5S4(=O)=O)c3)ccc21 (single isomer, unassigned) [Example 22, (*R)-3-(3-(((R)-5,5-Dioxido-7a,8,9,10-tetrahydropyrido[2,3-f]pyrrolo[2,1-d][1,2,5]thiadiazepin-6(7H)-yl)methyl)-4-methylphenyl)-3-(1-ethyl-4-methyl-1H-benzo[d][1,2,3]triazol-5-yl)propanoic Acid] | 0.081 nM | 3.9 nM |
| CCc1nnc2c(C)c([C@@H](CC(=O)O)c3ccc(C)c(CN4C[C@H]5CCCN5c5ncccc5S4(=O)=O)c3)ccn12 (single isomer, unassigned) [Example 282, (*S)-3-(3-(((R)-5,5-dioxido-7a,8,9,10-tetrahydropyrido[2,3-f]pyrrolo[2,1-d][1,2,5]thiadiazepin-6(7H)-yl)methyl)-4-methylphenyl)-3-(3-ethyl-8-methyl-[1,2,4]triazolo[4,3-a]pyridin-7-yl)propanoic Acid] | < 1 nM | 293 nM |
| Cc1ccc(C(CC(=O)O)c2ccc3c(nnn3C3CC3)c2C)cc1CN1C[C@@H]2CCCCN2c2ncccc2S1(=O)=O (single isomer, unassigned) [Example 399, (*R)-3-(1-Cyclopropyl-4-methyl-1H-benzo[d][1,2,3]triazol-5-yl)-3-(3-(((*S)-5,5-dioxido-7,7a,8,9,10,11-hexahydro-6H-dipyrido[2,1-d:2′,3′-][1,2,5]thiadiazepin-6-yl)methyl)-4-methylphenyl)propanoic Acid] | < 1 nM | 92.9 nM |
| Cc1ccc([C@@H](CC(=O)O)c2ccc3c(nnn3CC3CC3)c2C)cc1CN1C[C@@H]2CCCCN2c2ncccc2S1(=O)=O (single isomer, unassigned) [Example 233, (*R)-3-(1-(Cyclopropylmethyl)-4-methyl-1H-benzo[d][1,2,3]triazol-5-yl)-3-(3-(((*S)-5,5-dioxido-7,7a,8,9,10,11-hexahydro-6H-dipyrido[2,1-d:2′,3′-f][1,2,5]thiadiazepin-6-yl)methyl)-4-methylphenyl)propanoic Acid] | < 1 nM | 80 nM |
| Cc1ccc([C@H](CC(=O)O)c2ccn3c(C(F)(F)F)nnc3c2C)cc1CN1CC2(CCOCC2)Oc2ncccc2S1(=O)=O (single isomer, unassigned) [Example 432, (*S)-3-(3-((1′,1′-dioxido-2,3,5,6-tetrahydrospiro[pyran-4,4′-pyrido[2,3-b][1,4,5]oxathiazepin]-2′(3′H)-yl)methyl)-4-methylphenyl)-3-(8-methyl-3-(trifluoromethyl)-[1,2,4]triazolo[4,3-a]pyridin-7-yl)propanoic Acid] | < 1 nM | 103 nM |
